pKi: −log10 of the molar value.
These compounds were tested against T1, human GlyT1c transporter (Homo sapiens, UniProt P48067) (assay: Radioligand binding assay using recombinant CHO cell membranes expressing human GlyT1). Conditions: radioligand binding to human GlyT1c transporter-expressing membranes.
T1 construct: expressed in transfected cells; host or cells: CHO cells (recombinant; line hGlyT1c_5_CHO is named for the uptake assay)
T1 sequence (P48067 1-706): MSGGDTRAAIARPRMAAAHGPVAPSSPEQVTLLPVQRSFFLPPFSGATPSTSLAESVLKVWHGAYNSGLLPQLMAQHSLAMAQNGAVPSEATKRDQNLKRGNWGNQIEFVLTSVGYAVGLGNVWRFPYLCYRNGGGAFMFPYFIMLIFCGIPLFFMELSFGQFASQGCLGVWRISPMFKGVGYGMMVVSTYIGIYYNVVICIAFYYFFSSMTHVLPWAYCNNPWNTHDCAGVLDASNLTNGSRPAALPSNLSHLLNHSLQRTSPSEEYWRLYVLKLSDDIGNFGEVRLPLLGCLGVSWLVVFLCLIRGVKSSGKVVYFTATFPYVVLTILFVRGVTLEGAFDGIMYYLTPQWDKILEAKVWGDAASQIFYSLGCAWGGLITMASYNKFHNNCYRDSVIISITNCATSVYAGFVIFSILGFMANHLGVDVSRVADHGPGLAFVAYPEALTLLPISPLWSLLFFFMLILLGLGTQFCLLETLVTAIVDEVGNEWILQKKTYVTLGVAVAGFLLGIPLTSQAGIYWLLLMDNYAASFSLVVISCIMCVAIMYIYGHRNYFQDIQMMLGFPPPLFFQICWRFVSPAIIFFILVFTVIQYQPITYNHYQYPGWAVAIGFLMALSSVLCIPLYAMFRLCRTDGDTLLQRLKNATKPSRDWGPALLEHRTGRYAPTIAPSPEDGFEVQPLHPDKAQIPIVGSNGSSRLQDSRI
Source text: 2. Radioligand binding assays using recombinant CHO cell membranes expressing human GlyT1: […]
Compound `Cn1cnc(S(=O)(=O)N2C[C@H](NC(=O)Oc3ccccc3)[C@@H](c3ccc(F)cc3)C2)c1` [Example 693, phenyl {(3R,4S)-4-(4-fluorophenyl)-1-[(1-methyl-1H-imidazol-4-yl)sulfonyl]pyrrolidin-3-yl}carbamate] has a pKi of no less than 5.00. `Cn1cnc(S(=O)(=O)N2C[C@H](NC(=O)C3(C(F)(F)F)CC3)[C@@H](c3ccc(F)cc3)C2)c1` [Example 375, N-{(3R,4S)-4-(4-fluorophenyl)-1-[(1-methyl-1H-imidazol-4-yl)sulfonyl]pyrrolidin-3-yl}-1-(trifluoromethyl)cyclopropanecarboxamide] showed a pKi of no more than 5.00. `Cn1cnc(S(=O)(=O)N2C[C@@H](Nc3ccc(C(F)(F)F)cc3)[C@H](c3ccc(F)cc3)C2)c1` (relative stereo) [Example 89, trans-4-(4-fluorophenyl)-1-[(1-methyl-1H-imidazol-4-yl)sulfonyl]-N-[4-(trifluoromethyl)phenyl]pyrrolidin-3-amine] gave a pKi of no less than 7.00. `Cn1cnc(S(=O)(=O)N2C[C@@H](NC(=O)c3cc(Cl)cc(Cl)c3)[C@H](c3ccccc3)C2)c1` (relative stereo) [Example 30, 3,5-dichloro-N-{trans-1-[(1-methyl-1H-imidazol-4-yl)sulfonyl]-4-phenylpyrrolidin-3-yl}benzamide] showed a pKi of no less than 5.00. For `Cn1cnc(S(=O)(=O)N2C[C@@H](Nc3cncc(F)c3)[C@H](c3ccccc3)C2)c1` (relative stereo) [Example 237, 5-fluoro-N-{trans-1-[(1-methyl-1H-imidazol-4-yl)sulfonyl]-4-phenylpyrrolidin-3-yl}pyridin-3-amine], the pKi was no less than 5.00. `Cn1cnc(S(=O)(=O)N2C[C@@H](NC(=O)c3ccccc3F)[C@H](c3ccccc3)C2)c1` (relative stereo) [Example 17, 2-fluoro-N-{trans-1-[(1-methyl-1H-imidazol-4-yl)sulfonyl]-4-phenylpyrrolidin-3-yl}benzamide] showed a pKi of no less than 5.00. Compound `Cc1c(S(=O)(=O)N2C[C@@H](NC(=O)c3cccc(C(F)(F)F)c3Cl)[C@H](c3ccccc3)C2)cnn1C` (relative stereo) [Example 41, 2-chloro-N-{trans-1-[(1,5-dimethyl-1H-pyrazol-4-yl)sulfonyl]-4-phenylpyrrolidin-3-yl}-3-(trifluoromethyl)benzamide] has a pKi of no less than 5.00. In the case of `Cc1cccc(C(=O)N[C@@H]2CN(S(=O)(=O)c3cn(C)cn3)C[C@H]2c2ccccc2)c1` (relative stereo) [Example 23, 3-methyl-N-{trans-1-[(1-methyl-1H-imidazol-4-yl)sulfonyl]-4-phenylpyrrolidin-3-yl}benzamide], the pKi was no less than 5.00. For `Cn1cnc(S(=O)(=O)N2C[C@H](Nc3cccc(C(C)(O)C(F)(F)F)c3)[C@@H](c3ccc(F)cc3)C2)c1` (stereo partly drawn) [Example 392, 1,1,1-trifluoro-2-[3-({(3R,4S)-4-(4-fluorophenyl)-1-[(1-methyl-1H-imidazol-4-yl)sulfonyl]pyrrolidin-3-yl}amino)phenyl]propan-2-ol], the pKi was no less than 7.00. `Cn1cnc(S(=O)(=O)N2C[C@H](NC(=O)COc3ccc(F)cc3)[C@@H](c3ccc(F)cc3)C2)c1` [Example 644, 2-(4-fluorophenoxy)-N-{(3R,4S)-4-(4-fluorophenyl)-1-[(1-methyl-1H-imidazol-4-yl)sulfonyl]pyrrolidin-3-yl}acetamide] gave a pKi of no less than 5.00. `Cn1cnc(S(=O)(=O)N2C[C@H](NCc3cncs3)[C@@H](c3ccccc3)C2)c1` [Example 457, (3R,4S)-1-[(1-methyl-1H-imidazol-4-yl)sulfonyl]-4-phenyl-N-(1,3-thiazol-5-ylmethyl)pyrrolidin-3-amine] was tested, and the pKi was no less than 5.00. Compound `Cn1nccc1S(=O)(=O)N1C[C@@H](NC(=O)c2cccc(C(F)(F)F)c2Cl)[C@H](c2ccccc2)C1` (relative stereo) [Example 47, 2-chloro-N-{trans-1-[(1-methyl-1H-pyrazol-5-yl)sulfonyl]-4-phenylpyrrolidin-3-yl}-3-(trifluoromethyl)benzamide] has a pKi of no more than 5.00. Work on `Cn1cnc(S(=O)(=O)N2C[C@@H](NCc3cccc(C#N)c3)[C@H](c3ccc(F)cc3)C2)c1` (relative stereo) [Example 152, 3-[({trans-4-(4-fluorophenyl)-1-[(1-methyl-1H-imidazol-4-yl)sulfonyl]pyrrolidin-3-yl}amino)methyl]benzonitrile] yielded a pKi of no less than 6.00. `Cn1cnc(S(=O)(=O)N2C[C@@H](Nc3ccc(Cl)cc3)[C@H](c3ccc(F)cc3)C2)c1` (relative stereo) [Example 95, trans-N-(4-chlorophenyl)-4-(4-fluorophenyl)-1-[(1-methyl-1H-imidazol-4-yl)sulfonyl]pyrrolidin-3 - amine] showed a pKi of no less than 6.00. Compound `Cn1cnc(S(=O)(=O)N2C[C@@H](Nc3cccc(C(C)(C)C)c3)[C@H](c3ccccc3)C2)c1` (relative stereo) [Example 221, trans-N-(3-tert-butylphenyl)-1-[(1-methyl-1H-imidazol-4-yl)sulfonyl] -4-phenylpyrrolidin-3-amine] has a pKi of no less than 6.00. `Cn1cnc(S(=O)(=O)N2C[C@@H](OCc3cccc(S(C)(=O)=O)c3)[C@H](c3ccc(F)cc3)C2)c1` (relative stereo) [Example 714, 4-{[trans-3-(4-fluorophenyl)-4-{[3-(methylsulfonyl)benzyl]oxy}pyrrolidin-1-yl]sulfonyl}-1-methyl-1H-imidazole] showed a pKi of no less than 5.00. For `COc1ccc(S(=O)(=O)N2C[C@@H](NC(=O)c3ccc(C(F)(F)F)cc3)[C@H](c3ccccc3)C2)cc1` (relative stereo) [Example 134, N-{trans-1-[(4-methoxyphenyl)sulfonyl]-4-phenylpyrrolidin-3-yl}-4-(trifluoromethyl)benzamide], the pKi was no less than 5.00. `Cn1cnc(S(=O)(=O)N2C[C@@H](COc3cc(C(F)(F)F)ccn3)[C@H](c3ccc(F)cc3)C2)c1` (relative stereo) [Example 346, 2-({Trans-4-(4-fluorophenyl)-1-[(1-methyl-1H-imidazol-4-yl)sulfonyl]pyrrolidin-3-yl}methoxy)-4-(trifluoromethyl)pyridine] gave a pKi of no less than 6.00. `Cn1cnc(S(=O)(=O)N2C[C@@H]([C@@H]3CCCOC3)[C@H](Nc3cccc(Oc4ccccc4)c3)C2)c1` (mixture of isomers) [Example 786, trans-1-[(1-methyl-1H-imidazol-4-yl)sulfonyl]-N-(3-phenoxyphenyl)-4-[(3S)-tetrahydro-2H-pyran-3-yl]pyrrolidin-3-amine] was tested, and the pKi was no less than 6.00.

Same assay, conditions: radioligand binding, recombinant CHO cell membranes expressing human GlyT1c
`Cc1cccc(N[C@@H]2CN(S(=O)(=O)c3cn(C)cn3)C[C@H]2C2CCOC2)c1` (relative stereo) [Example 828, trans-1-[(1-methyl-1H-imidazol-4-yl)sulfonyl]-N-(3-methylphenyl)-4-(tetrahydrofuran-3-yl)pyrrolidin-3-amine] showed a pKi of no less than 5.00. For `Cn1cnc(S(=O)(=O)N2C[C@@H](Nc3ccc(F)c(Cl)c3)[C@H](C3CCCCO3)C2)c1` (relative stereo) [Example 815, Trans-N-(3-chloro-4-fluorophenyl)-1-[(1-methyl-1H-imidazol-4-yl)sulfonyl]-4-(tetrahydro-2H-pyran-2-yl)pyrrolidin-3-amine], the pKi was no less than 7.00. `Cc1cc(N[C@@H]2CN(S(=O)(=O)c3cn(C)cn3)C[C@H]2C2CCCCO2)ccc1F` (relative stereo) [Example 847, Trans-N-(4-fluoro-3-methylphenyl)-1-[(1-methyl-1H-imidazol-4-yl)sulfonyl]-4-(tetrahydro-2H-pyran-2-yl)pyrrolidin-3-amine] gave a pKi of no less than 7.00.
